Measurements published in PMC8877724 (Journal of medicinal chemistry, 2020).
“Also recorded” adds a separate entry of the source. Where two headings read alike, the source gives them in different places.

Key:
[1] = tested on: Vero cells; experiment: Vero cell viability assay; format: cell-based, African green monkey; conditions: 48 h
[2] = tested on: NF-κB signaling in HEK293 cells containing a stably transfected NF-κB-driven SEAP reporter gene; experiment: NF-κB secreted alkaline phosphatase; format: cell-based, human; conditions: tested at 1-7.5 μM, SEAP reporter assay
[3] = tested on: NF-κB signaling in A549 cells bearing a stably transfected NF-κB-driven luciferase reporter gene; experiment: NF-κB luciferase reporter assay, TNF-α induced; format: cell-based; conditions: tested at 5-20 μM, 20 μM the highest concentration tested
[4] = Reaction with excess cysteamine monitored by 1H NMR; format: physicochemical
[5] = molecular target: T1, La antigen (Homo sapiens, UniProt P05455); conditions: cited from earlier work
T1 sequence (P05455 100-324 limits assumed): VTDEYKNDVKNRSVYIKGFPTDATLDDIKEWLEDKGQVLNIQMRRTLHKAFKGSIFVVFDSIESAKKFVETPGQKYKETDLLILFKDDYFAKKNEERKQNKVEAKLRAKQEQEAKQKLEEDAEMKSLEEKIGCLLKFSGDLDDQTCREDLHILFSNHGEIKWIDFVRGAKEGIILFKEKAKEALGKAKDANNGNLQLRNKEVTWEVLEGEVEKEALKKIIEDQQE

[6] = cited from earlier work
[7] = tested on: HEK293/NF-κB-SEAP cells; experiment: Cellular cytotoxicity accompanying the SEAP reporter assay; format: cell-based, human; conditions: 7.5 μM
[8] = tested on: A549/NF-κB-luc cells; conditions: 10 μM, A549/NF-κB-luc assay; cited from earlier work

C=C1C(=O)N[C@@H]2C3=CC(=O)CC3=C(C)CC[C@@H]12 (relative stereo) [Compound 47, (3aS*,9bS*)-6-Methyl-3-methylene-1,3a,4,5,7,9b-hexahydro-2H-azuleno[4,5-b]pyrrole-2,8(3H)-dione]
cytotoxicity (in words) [1]: low cytotoxicity
NF-κB inhibition (in words) [2]: little or no inhibition
NF-κB inhibition (in words) [3]: did not inhibit NF-κB signaling; also recorded: little or no inhibition

3-methylene-9-phenyl-3,3a,4,5-tetrahydroazuleno[4,5-b]furan-2,8(7H,9bH)-dione [Compound S17]
Half-life ([4]; HSCH2CH2NH2 (15 equiv), CDCl3 (0.006 M), rt): 7 min

C=C1C(=O)N(S(=O)(=O)c2ccc(C)cc2)[C@@H]2C3=C(c4ccccc4)C(=O)CC3=C(C)CC[C@@H]12 (relative stereo) [Compound 54, (3aS*,9bS*)-6-Methyl-3-methylene-9-phenyl-1-tosyl-1,3a,4,5,7,9b-hexahydro-2H-azuleno[4,5-b]pyrrole-2,8(3H)-dione]
time to complete reaction with cysteamine ([4]; cysteamine (15 equiv), CDCl3, rt, disappearance of methylene resonances by 1H NMR): less than 10 min

C=CC(=O)N1CCC[C@@H](n2nc(-c3ccc(Oc4ccccc4)cc3)c3c(N)ncnc32)C1 [Ibrutinib]
ALARM NMR result [5]: ALARM NMR negative

C=C1C(=O)O[C@@H]2[C@H]3O[C@]3(C)CC/C=C(\C)CC[C@@H]12 [PTL, parthenolide]
time to complete reaction with cysteamine [6]: less than 5 min
cytotoxicity (in words) [7]: moderate level of cytotoxicity
cytotoxicity (in words) [8]: no cytotoxicity

C=C1C(=O)N(c2ccc(OC)cc2)[C@@H]2C3=C(c4ccccc4)C(=O)CC3=C(C)CC[C@@H]12 (relative stereo) [Compound 52, (3aS*,9bS*)-1-(4-Methoxyphenyl)-6-methyl-3-methylene-9-phenyl-1,3a,4,5,7,9b-hexahydro-2H-azuleno[4,5-b]pyrrole-2,8(3H)-dione]
NF-κB inhibition (in words) [3]: no inhibitory activities; also recorded: little NF-κB inhibitory activity; also recorded: no NF-κB inhibition

C=C1C(=O)N[C@@H]2C3=C(c4ccccc4)C(=O)CC3=C(C)CC[C@@H]12 (relative stereo) [Compound 45, (3aS*,9bS*)-6-Methyl-3-methylene-9-phenyl-3,3a,4,5-tetrahydro-1H-azuleno[4,5-b]pyrrole-2,8(7H,9bH)-dione]
NF-κB inhibition (in words) [3]: did not inhibit NF-κB signaling; also recorded: no NF-κB inhibition

C=C1C(=O)N(C)[C@@H]2C3=C(c4ccccc4)C(=O)CC3=C(C)CC[C@@H]12 (relative stereo) [Compound 48, (3aS*,9bS*)-1,6-Dimethyl-3-methylene-9-phenyl-1,3a,4,5,7,9b-hexahydro-2H-azuleno[4,5-b]pyrrole-2,8(3H)-dione]
NF-κB inhibition (in words) [3]: no inhibitory activities

C=C1C(=O)N(c2ccccc2)[C@@H]2C3=C(c4ccccc4)C(=O)CC3=C(C)CC[C@@H]12 (relative stereo) [Compound 49, (3aS*,9bS*)-6-Methyl-3-methylene-1,9-diphenyl-1,3a,4,5,7,9b-hexahydro-2H-azuleno[4,5-b]pyrrole-2,8(3H)-dione]
NF-κB inhibition (in words) [3]: no inhibitory activities; also recorded: little NF-κB inhibitory activity; also recorded: no NF-κB inhibition
